Values quoted from earlier work as cited in patent US8999893B2, “Stabilized oil-in-water emulsions including meptyl dinocap” (Dow AgroSciences LLC, priority 2008, dated 2015).

In the case of “2,6-dinitro-4-octylphenyl crotonates and 2,4-dinitro-6-octylphenyl crotonates in which ‘octyl’ is a mixture of 1-methylheptyl, 1-ethylhexyl and 1-propylpentyl groups [Meptyl Dinocap]”, the solubility in water is listed as 0.151 µg/mL.
